# Target: T1, VvHmpA (Vibrio vulnificus, UniProt Q8DCU2)
# T1 construct: gene hmp; reconstituted with heme or FAD
# Experiment: FAD fluorometric assay after reconstitution
# Assay type: binding
# Conditions: 10 μM protein incubated with 80 μM FAD, 1 h, room temperature; stoichiometry, no affinity constant
# T1 sequence (Q8DCU2 whole entry): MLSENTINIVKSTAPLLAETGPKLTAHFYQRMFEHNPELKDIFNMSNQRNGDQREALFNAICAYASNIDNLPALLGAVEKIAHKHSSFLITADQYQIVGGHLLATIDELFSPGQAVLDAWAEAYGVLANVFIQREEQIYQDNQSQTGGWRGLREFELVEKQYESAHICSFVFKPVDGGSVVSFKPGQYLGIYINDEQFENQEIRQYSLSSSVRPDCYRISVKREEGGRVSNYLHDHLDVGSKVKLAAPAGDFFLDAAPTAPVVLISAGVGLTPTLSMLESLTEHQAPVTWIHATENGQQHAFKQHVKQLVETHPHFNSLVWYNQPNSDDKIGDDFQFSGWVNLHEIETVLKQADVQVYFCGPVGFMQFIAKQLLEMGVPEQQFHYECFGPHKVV
smiles,measurement,value
Cc1cc2nc3c(=O)[nH]c(=O)nc-3n(C[C@H](O)[C@H](O)[C@H](O)COP(=O)(O)OP(=O)(O)OC[C@H]3O[C@@H](n4cnc5c(N)ncnc54)[C@H](O)[C@@H]3O)c2cc1C [FAD],molecules of FAD per VvHmpA monomer,0.92 ± 0.12 molecules per monomer

# From publication PMC6768983, “Transcriptomic Identification and Biochemical Characterization of HmpA, a Nitric Oxide Dioxygenase, Essential for Pathogenesis of Vibrio vulnificus” (Frontiers in Microbiology, 2019)
